# Legend:
# [1] = system: HL-60; assay: Inhibition of human PITSLRE in HL-60 cells lysate assessed as reduction of labeling of acyl-phosphate ATP probe at 100 nM
# [2] = target: Tyrosine-protein kinase Fgr (Homo sapiens) (UniProt P09769); assay: Inhibition of human FGR in HL-60 cells lysate assessed as reduction of labeling of acyl-phosphate ATP probe at 100 nM; format: cell-free
# [3] = system: Staphylococcus aureus; assay: Antibacterial activity against Staphylococcus aureus Smith; format: ADME, organism-based
# [4] = system: HL-60; assay: Inhibition of human Wnk1/Wnk2/Wnk4 in HL-60 cells lysate assessed as reduction of labeling of acyl-phosphate ATP probe at 100 nM
# [5] = target: T1, Serine/threonine-protein kinase 4 (Homo sapiens) (UniProt Q13043); assay: Inhibition of human MST1 in HL-60 cells lysate assessed as reduction of labeling of acyl-phosphate ATP probe at 100 nM; format: cell-free
# T1 sequence (whole entry): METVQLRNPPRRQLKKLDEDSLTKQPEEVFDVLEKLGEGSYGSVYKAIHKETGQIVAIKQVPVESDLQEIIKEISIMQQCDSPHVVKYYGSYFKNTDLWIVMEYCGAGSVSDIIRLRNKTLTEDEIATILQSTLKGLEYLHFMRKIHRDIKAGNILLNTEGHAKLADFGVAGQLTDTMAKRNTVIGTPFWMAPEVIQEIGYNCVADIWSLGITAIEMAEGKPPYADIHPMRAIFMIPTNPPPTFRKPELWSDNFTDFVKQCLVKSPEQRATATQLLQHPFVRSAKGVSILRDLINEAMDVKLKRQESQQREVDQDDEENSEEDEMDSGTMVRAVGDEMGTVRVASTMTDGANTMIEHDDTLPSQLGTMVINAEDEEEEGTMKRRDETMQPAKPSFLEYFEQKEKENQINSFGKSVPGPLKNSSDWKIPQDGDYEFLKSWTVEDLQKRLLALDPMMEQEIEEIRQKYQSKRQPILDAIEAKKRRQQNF
# [6] = target: Serine/threonine-protein kinase 16 (Homo sapiens) (UniProt O75716); assay: Inhibition of human MPSK1 in HL-60 cells lysate assessed as reduction of labeling of acyl-phosphate ATP probe at 100 nM; format: cell-free
# Chain of Serine/threonine-protein kinase 16 (Homo sapiens) (O75716 whole entry): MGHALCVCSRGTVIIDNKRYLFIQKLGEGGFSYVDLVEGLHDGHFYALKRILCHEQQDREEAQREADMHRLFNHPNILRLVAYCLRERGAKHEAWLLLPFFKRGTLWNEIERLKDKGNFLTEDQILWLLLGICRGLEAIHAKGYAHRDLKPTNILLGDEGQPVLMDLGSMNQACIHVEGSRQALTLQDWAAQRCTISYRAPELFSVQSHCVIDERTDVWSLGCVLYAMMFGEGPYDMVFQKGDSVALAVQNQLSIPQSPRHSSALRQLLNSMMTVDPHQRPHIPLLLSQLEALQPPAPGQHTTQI
# [7] = target: Cyclin-dependent kinase 13 (Homo sapiens) (UniProt Q14004); assay: Inhibition of human CHED in HL-60 cells lysate assessed as reduction of labeling of acyl-phosphate ATP probe at 100 nM; format: cell-free
# Chain of Cyclin-dependent kinase 13 (Homo sapiens) (Q14004 whole entry, looked up): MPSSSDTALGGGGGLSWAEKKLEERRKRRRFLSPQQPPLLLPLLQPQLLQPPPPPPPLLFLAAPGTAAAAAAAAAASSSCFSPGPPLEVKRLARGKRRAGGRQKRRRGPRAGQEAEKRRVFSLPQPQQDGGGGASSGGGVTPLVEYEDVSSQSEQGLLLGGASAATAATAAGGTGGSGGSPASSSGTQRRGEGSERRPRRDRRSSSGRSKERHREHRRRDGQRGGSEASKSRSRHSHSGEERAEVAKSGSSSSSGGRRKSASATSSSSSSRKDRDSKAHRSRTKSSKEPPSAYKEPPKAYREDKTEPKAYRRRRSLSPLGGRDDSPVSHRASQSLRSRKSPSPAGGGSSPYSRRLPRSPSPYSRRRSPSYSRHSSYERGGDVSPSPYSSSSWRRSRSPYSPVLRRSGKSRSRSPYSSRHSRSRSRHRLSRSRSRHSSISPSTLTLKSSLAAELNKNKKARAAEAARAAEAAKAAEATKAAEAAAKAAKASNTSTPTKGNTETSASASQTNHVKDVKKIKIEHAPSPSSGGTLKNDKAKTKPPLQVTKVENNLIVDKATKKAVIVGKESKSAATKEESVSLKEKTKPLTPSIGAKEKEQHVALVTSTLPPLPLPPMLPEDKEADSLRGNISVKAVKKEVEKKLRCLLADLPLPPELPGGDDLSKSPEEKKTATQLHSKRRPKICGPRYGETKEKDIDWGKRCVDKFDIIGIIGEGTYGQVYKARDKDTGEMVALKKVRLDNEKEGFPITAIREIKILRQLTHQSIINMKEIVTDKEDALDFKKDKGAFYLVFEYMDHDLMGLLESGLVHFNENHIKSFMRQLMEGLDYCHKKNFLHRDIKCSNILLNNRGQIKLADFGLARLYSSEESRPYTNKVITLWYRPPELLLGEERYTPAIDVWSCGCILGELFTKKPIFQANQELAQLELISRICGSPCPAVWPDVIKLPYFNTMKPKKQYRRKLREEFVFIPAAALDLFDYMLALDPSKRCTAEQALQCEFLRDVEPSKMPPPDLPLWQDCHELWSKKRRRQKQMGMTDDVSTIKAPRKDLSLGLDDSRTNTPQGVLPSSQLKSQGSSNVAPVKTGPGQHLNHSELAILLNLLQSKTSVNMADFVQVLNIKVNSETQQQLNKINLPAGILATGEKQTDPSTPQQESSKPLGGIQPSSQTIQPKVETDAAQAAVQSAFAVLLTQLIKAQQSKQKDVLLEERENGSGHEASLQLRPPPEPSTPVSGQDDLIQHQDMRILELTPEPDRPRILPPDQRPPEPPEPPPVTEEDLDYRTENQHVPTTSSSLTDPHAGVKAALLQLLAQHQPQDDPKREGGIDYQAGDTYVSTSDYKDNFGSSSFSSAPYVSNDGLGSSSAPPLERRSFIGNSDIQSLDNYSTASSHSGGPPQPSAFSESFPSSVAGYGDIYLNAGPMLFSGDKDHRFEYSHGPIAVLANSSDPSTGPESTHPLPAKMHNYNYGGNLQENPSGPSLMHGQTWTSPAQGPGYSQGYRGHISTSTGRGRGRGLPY
# [8] = target: T2, Mitogen-activated protein kinase kinase kinase 5 (Homo sapiens) (UniProt Q99683); assay: Inhibition of human MAP3K5 in HL-60 cells lysate assessed as reduction of labeling of acyl-phosphate ATP probe at 100 nM; format: cell-free
# T2 sequence (whole entry): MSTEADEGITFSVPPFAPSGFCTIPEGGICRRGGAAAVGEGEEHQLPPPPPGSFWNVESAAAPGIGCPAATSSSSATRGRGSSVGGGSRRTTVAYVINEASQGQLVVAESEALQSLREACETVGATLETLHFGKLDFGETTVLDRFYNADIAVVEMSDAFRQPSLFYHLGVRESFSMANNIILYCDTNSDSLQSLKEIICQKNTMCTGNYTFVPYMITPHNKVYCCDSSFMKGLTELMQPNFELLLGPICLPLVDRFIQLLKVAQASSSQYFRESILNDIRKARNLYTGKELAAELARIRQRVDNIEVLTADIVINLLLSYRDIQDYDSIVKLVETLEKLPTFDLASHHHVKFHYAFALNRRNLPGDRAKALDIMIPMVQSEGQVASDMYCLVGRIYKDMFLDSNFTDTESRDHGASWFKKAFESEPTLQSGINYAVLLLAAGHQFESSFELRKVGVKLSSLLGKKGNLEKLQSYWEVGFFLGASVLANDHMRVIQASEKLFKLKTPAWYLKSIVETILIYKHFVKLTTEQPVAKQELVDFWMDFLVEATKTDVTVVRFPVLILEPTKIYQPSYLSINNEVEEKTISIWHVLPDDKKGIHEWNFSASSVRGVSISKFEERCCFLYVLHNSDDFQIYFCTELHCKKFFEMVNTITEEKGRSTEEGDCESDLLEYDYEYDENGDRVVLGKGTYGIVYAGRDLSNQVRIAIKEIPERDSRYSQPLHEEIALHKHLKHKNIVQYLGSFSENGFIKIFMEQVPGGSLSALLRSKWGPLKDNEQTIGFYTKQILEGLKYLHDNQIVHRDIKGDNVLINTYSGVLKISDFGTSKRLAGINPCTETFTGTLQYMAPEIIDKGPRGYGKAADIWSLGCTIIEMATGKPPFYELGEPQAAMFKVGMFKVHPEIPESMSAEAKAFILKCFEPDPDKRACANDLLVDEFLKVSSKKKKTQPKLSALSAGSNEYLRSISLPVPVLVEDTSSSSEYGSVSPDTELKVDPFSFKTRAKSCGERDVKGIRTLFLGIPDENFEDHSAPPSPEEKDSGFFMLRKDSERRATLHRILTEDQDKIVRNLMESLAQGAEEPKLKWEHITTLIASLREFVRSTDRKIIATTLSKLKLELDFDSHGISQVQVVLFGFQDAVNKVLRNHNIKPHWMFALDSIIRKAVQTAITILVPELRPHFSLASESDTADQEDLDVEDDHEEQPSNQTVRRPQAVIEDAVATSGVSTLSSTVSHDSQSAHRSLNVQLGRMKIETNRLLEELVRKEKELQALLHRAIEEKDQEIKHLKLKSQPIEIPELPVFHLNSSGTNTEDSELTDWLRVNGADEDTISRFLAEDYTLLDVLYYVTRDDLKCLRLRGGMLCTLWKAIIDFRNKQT
# Chain of Tyrosine-protein kinase Fgr (Homo sapiens) (P09769 2-529 limits assumed): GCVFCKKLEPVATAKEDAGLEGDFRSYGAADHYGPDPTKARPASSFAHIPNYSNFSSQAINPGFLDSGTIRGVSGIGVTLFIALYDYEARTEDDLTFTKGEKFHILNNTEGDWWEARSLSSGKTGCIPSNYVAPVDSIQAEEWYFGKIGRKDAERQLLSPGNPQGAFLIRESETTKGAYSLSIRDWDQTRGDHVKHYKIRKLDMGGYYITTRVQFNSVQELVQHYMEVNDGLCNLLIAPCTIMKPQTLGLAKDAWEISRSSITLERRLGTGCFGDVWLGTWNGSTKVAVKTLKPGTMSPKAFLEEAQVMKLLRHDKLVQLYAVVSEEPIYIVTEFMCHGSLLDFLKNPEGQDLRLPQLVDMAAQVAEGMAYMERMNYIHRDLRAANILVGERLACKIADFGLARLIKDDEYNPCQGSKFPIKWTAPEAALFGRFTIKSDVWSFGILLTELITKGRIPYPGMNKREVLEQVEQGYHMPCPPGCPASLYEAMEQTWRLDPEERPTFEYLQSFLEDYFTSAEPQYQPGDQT
inhibition [2] [%],MIC [3] [µM],inhibition [5] [%],inhibition [6] [%],inhibition [7] [%],inhibition [8] [%],Compound,inhibition at 0.1 µM [1] [%],inhibition at 0.1 µM [4] [%]
< 35,> 298,< 35,< 35,< 35,< 35,C[C@H]1COc2c(NCCCc3ccccn3)c(F)c(N)c3c(=O)c(C#N)cn1c23,< 35,< 35
< 35,2,< 35,< 35,< 35,< 35,C[C@H]1COc2c(NCCCn3cccn3)c(F)c(N)c3c(=O)c(C(=O)O)cn1c23,< 35,< 35
< 35,> 306,< 35,< 35,< 35,< 35,C[C@H]1COc2c(NCCCn3cccn3)c(F)c(N)c3c(=O)c(C#N)cn1c23,< 35,< 35
< 35,2,< 35,< 35,< 35,< 35,C[C@H]1COc2c(NCCCc3ccccn3)c(F)c(N)c3c(=O)c(C(=O)O)cn1c23,< 35,< 35
